target: T1, cloned human H3 receptors, stably expressed in SK-N-MC cells (Homo sapiens, UniProt Q9Y5N1); assay: H3 Receptor Binding (Human); settings: average of the results obtained
T1 construct: expressed in transfected cells; host or cells: SK-N-MC cells
Description: Binding of compounds to the cloned human H3 receptors, stably expressed in SK-N-MC cells, was performed as described by Barbier, A. J. et al. (Br. J. Pharmacol. 2004, 143(5), 649-661). Data for compounds tested in this assay are presented in Table 1 as an average of the results obtained.

T1 sequence (Q9Y5N1 whole entry): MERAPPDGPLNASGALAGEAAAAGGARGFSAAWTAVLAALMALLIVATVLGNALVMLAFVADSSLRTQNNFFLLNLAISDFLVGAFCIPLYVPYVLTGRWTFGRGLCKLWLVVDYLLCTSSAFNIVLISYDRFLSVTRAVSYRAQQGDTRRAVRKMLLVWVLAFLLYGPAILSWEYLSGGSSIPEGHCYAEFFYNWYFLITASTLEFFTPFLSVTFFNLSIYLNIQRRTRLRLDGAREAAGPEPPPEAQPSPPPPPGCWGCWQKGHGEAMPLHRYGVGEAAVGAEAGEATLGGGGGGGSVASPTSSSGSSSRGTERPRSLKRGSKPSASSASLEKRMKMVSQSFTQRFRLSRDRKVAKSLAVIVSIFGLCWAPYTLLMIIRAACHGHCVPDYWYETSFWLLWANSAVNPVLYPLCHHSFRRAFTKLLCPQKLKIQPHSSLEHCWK

Row | SMILES | Ki [nM]
1 | CC(C)N1CCN(C(=O)c2ccc3c(CN4CCOCC4)c[nH]c3c2)CC1 [Example 4, (4-Isopropyl-piperazin-1-yl)-(3-morpholin-4-ylmethyl-1H-indol-6-yl)-methanone] | 1
2 | CC(C)N1CCN(C(=O)c2ccc3c(CN4CCOCC4)cn(C)c3c2)CC1 [Example 1, (4-Isopropyl-piperazin-1-yl)-(1-methyl-3-morpholin-4-ylmethyl-1H-indol-6-yl)-methanone] | 2
3 | O=C(c1ccc2c(CN3CCOCC3)c[nH]c2c1)N1CCN(C2CC2)CC1 [Example 5, (4-Cyclopropyl-piperazin-1-yl)-(3-morpholin-4-ylmethyl-1H-indol-6-yl)-methanone] | 1

Now from value to compound:

Row | Ki [nM] | SMILES
4 | 1 | CC(C)N1CCCN(C(=O)c2ccc3c(CN4CCOCC4)c[nH]c3c2)CC1 [Example 7, (4-Isopropyl-[1,4]diazepan-1-yl)-(3-morpholin-4-ylmethyl-1H-indol-6-yl)-methanone]
5 | 26 | O=C(c1ccc2c(CN3CCN(C4CCCC4)CC3)c[nH]c2c1)N1CCCCCC1 [Example 91, Azepan-1-yl-[3-(4-cyclopentyl-piperazin-1-ylmethyl)-1H-indol-6-yl]-methanone]

target: T2, Rat H3 (Rattus norvegicus, UniProt Q9QYN8); assay: H3 Receptor Binding (Rat), rat brain membranes, N-[3H]-α-methylhistamine; settings: rat brain without cerebellum; 0.8 nM N-[3H]-α-methylhistamine; average of results
Description: A rat brain without cerebellum (Zivic Laboratories Inc., Pittsburgh, Pa.) was homogenized in 50 mM Tris-HCl/5 mM EDTA and centrifuged at 1,000 rpm for 5 min. The supernatant was removed and recentrifuged at 15,000 rpm for 30 min. Pellets were rehomogenized in 50 mM Tris/5 mM EDTA (pH 7.4). Membranes were incubated with 0.8 nM N—[^3H]-α-methylhistamine plus/minus test compounds for 60 min at 25° C. and harvested by rapid filtration over GF/C glass fiber filters (pretreated with 0.3% polyethylenimine) followed by four washes with buffer. Nonspecific binding was defined in the presence of 100 μM histamine. Inhibitory concentration (responsible for 50% inhibition of maximal effect, IC50) values were determined by a single site curve-fitting program (GraphPad, San Diego, Calif.) and converted to Ki values based on a N—[^3H]-α-methylhistamine dissociation constant (Kd) of 0.8 nM. Data for compounds tested in this assay are presented in Table 2 as an average of the results obtained.
Target sequence in this assay (Q9QYN8 1-397 isoform Q9QYN8-3): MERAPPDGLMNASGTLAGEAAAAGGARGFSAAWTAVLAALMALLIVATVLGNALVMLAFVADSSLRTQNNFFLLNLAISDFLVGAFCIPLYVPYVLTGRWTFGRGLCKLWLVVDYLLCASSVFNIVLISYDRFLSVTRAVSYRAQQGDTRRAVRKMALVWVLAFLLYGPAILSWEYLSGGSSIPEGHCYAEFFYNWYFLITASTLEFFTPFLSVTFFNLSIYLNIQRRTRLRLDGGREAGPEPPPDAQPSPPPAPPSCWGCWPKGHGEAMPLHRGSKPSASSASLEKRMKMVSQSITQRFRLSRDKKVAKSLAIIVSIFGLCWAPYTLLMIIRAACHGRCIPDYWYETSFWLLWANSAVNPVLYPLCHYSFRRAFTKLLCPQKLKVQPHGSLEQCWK

Row | SMILES | Ki [nM]
6 | CC(C)N1CCCN(C(=O)c2ccc3c(CN4CCOCC4)c[nH]c3c2)CC1 [Example 7, (4-Isopropyl-[1,4]diazepan-1-yl)-(3-morpholin-4-ylmethyl-1H-indol-6-yl)-methanone] | 2
7 | CC(C)N1CCN(C(=O)c2ccc3c(CN4CCOCC4)c[nH]c3c2)CC1 [Example 4, (4-Isopropyl-piperazin-1-yl)-(3-morpholin-4-ylmethyl-1H-indol-6-yl)-methanone] | 14
8 | CC(C)N1CCN(C(=O)c2ccc3c(CN4CCOCC4)cn(C)c3c2)CC1 [Example 1, (4-Isopropyl-piperazin-1-yl)-(1-methyl-3-morpholin-4-ylmethyl-1H-indol-6-yl)-methanone] | 98
9 | O=C(c1ccc2c(CN3CCOCC3)c[nH]c2c1)N1CCN(C2CC2)CC1 [Example 5, (4-Cyclopropyl-piperazin-1-yl)-(3-morpholin-4-ylmethyl-1H-indol-6-yl)-methanone] | 28

target: T3, human H3 receptor (Homo sapiens, UniProt Q9Y5N1); assay: Cyclic AMP Accumulation, SK-N-MC reporter cells (human H3); type: cell-based; settings: SK-N-MC cells expressing reporter construct and human H3 receptor; read-out: Human pA2 (converted)
T3 construct: expressed in transfected cells; host or cells: SK-N-MC cells
Description: (§1) Sublines of SK-N-MC cells were created that expressed a reporter construct and either the human or rat H3 receptor. The pA2 values were obtained as described by Barbier et al. (2004). Data for compounds tested in these assays are presented in Table 3, as an average of the results obtained (NT=not tested).

T3 sequence (Q9Y5N1 whole entry): as the sequence (Q9Y5N1 whole entry) above

Row | SMILES | Kb [nM]
10 | CC(C)N1CCN(C(=O)c2ccc3c(CN4CCOCC4)c[nH]c3c2)CC1 [Example 4, (4-Isopropyl-piperazin-1-yl)-(3-morpholin-4-ylmethyl-1H-indol-6-yl)-methanone] | 0.234
11 | CC(C)N1CCN(C(=O)c2ccc3c(CN4CCOCC4)cn(C)c3c2)CC1 [Example 1, (4-Isopropyl-piperazin-1-yl)-(1-methyl-3-morpholin-4-ylmethyl-1H-indol-6-yl)-methanone] | 3.72
12 | O=C(c1ccc2c(CN3CCOCC3)c[nH]c2c1)N1CCN(C2CC2)CC1 [Example 5, (4-Cyclopropyl-piperazin-1-yl)-(3-morpholin-4-ylmethyl-1H-indol-6-yl)-methanone] | 0.537
13 | O=C(c1ccc2c(CN3CCN(C4CCCC4)CC3)c[nH]c2c1)N1CCCCCC1 [Example 91, Azepan-1-yl-[3-(4-cyclopentyl-piperazin-1-ylmethyl)-1H-indol-6-yl]-methanone] | 46.8

target: T2, Rat H3; assay: Cyclic AMP Accumulation, SK-N-MC reporter cells (rat H3); type: cell-based; design: expressed in transfected cells; host or cells: SK-N-MC cells (subline with reporter construct); settings: SK-N-MC cells expressing reporter construct and rat H3 receptor; read-out: Rat pA2 (converted)
Description: as §1
Target sequence in this assay (Q9QYN8 whole entry): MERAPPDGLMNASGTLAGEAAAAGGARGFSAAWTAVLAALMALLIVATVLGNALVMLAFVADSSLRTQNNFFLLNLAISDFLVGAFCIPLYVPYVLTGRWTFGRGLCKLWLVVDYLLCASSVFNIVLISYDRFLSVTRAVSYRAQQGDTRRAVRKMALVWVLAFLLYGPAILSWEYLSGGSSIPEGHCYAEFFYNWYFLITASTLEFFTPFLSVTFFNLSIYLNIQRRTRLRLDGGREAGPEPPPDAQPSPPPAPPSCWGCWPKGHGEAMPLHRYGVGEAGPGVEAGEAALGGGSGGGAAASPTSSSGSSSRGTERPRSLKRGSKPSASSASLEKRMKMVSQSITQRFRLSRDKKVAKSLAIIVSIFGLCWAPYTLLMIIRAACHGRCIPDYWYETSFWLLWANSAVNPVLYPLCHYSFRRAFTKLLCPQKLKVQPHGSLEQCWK

Row | SMILES | Kb [nM]
14 | CC(C)N1CCCN(C(=O)c2ccc3c(CN4CCOCC4)c[nH]c3c2)CC1 [Example 7, (4-Isopropyl-[1,4]diazepan-1-yl)-(3-morpholin-4-ylmethyl-1H-indol-6-yl)-methanone] | 2
15 | O=C(c1ccc2c(CN3CCN(C4CCCC4)CC3)c[nH]c2c1)N1CCCCCC1 [Example 91, Azepan-1-yl-[3-(4-cyclopentyl-piperazin-1-ylmethyl)-1H-indol-6-yl]-methanone] | 67.6
